Test systems include ACHN renal; EKVX NSCLC; NCI-H226 lung; DU-145 prostate; SW-620 colon; NCI-H522 lung; A549 NSCLC.
Holding throughout (assay): DTP human tumour cell line panel, 48 h

Where “and” joins values, the source holds several entries; their conditions need not be identical. Identical values can stand only once.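 Values below derive from 48-hour exposures of cells grown in 96-well plates, with endpoints linearly interpolated between the two concentrations bracketing the appropriate inhibition level. The concentration for 50% growth inhibition is given as GI50. TGI is the concentration that stops growth completely.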

With `C[C@@H](C1CC[C@H]2[C@@H]3[C@@H]4O[C@@H]4[C@@]4(O)CC=CC(=O)[C@]4(C)[C@H]3C[C@H](O)[C@]12C)[C@H]1C[C@]2(C)O[C@]2(C)C(=O)O1` (some centres not stated), the TGI in the assay with ACHN renal, with EKVX NSCLC, with NCI-H226 lung, with DU-145 prostate, in the assay with SW-620 colon and in the assay on NCI-H522 lung was more than 100 µM each time. For the same compound, the TGI in the assay on A549 NSCLC was more than 100 µM.

As to `OCC#CCOCC#Cc1ccccc1C#CCOCC#CCO`, the GI50 with ACHN renal was 27.8 µM; in the assay on EKVX NSCLC it was 41.3 µM; in the assay with NCI-H226 lung, 41.4 µM; with DU-145 prostate, 48.4 µM; with SW-620 colon it was 58.9 µM; in the assay with NCI-H522 lung it was 66.5 µM. Moreover, in the assay with A549 NSCLC, the GI50 was 50.9 µM. The TGI was 85.8 µM in the assay on ACHN renal; more than 100 µM in the assay on EKVX NSCLC; more than 100 µM in the assay with NCI-H226 lung; more than 100 µM in the assay with DU-145 prostate; more than 100 µM in the assay with SW-620 colon; more than 100 µM with NCI-H522 lung. In the assay on A549 NSCLC, this compound returned a concentration for total growth inhibition (TGI) of more than 100 µM.

Regarding `C=CC(=O)N[C@@H]1CN(c2nc(Nc3cn(C)nc3OC)c3ncn(C)c3n2)C[C@H]1F`, the GI50 is 0.506 µM in the assay on ACHN renal; 0.273 µM in the assay on EKVX NSCLC; more than 83 µM in the assay with NCI-H226 lung; 4.02 µM in the assay with DU-145 prostate; 26.9 µM with SW-620 colon; 0.0335 µM in the assay with NCI-H522 lung. The GI50 in the assay on A549 NSCLC was 24.5 µM. The TGI with ACHN renal was more than 100 µM; in the assay on EKVX NSCLC, 97.9 µM; with NCI-H226 lung, more than 100 µM; in the assay with DU-145 prostate, more than 91.7 µM; in the assay with SW-620 colon, more than 100 µM; with NCI-H522 lung, 17.7 µM. The compound further displayed a TGI in the assay on A549 NSCLC of more than 100 µM.

For `COc1ccc(C(=O)/C=C/c2sc(Cl)nc2Cl)cc1`, the GI50 with ACHN renal is 1.66 µM; in the assay with EKVX NSCLC, 3.67 µM; with NCI-H226 lung, 0.655 µM; in the assay on DU-145 prostate, 1.9 µM; in the assay with SW-620 colon it was 0.613 µM; in the assay with NCI-H522 lung, 0.452 µM. In addition, the GI50 in the assay with A549 NSCLC is 3.72 µM. Besides, the TGI in the assay on ACHN renal stood at 3.05 µM; with EKVX NSCLC, 14.8 µM; in the assay with NCI-H226 lung, 17.8 µM; with DU-145 prostate, 3.55 µM; in the assay on SW-620 colon, 2.79 µM; in the assay with NCI-H522 lung, 4.85 µM. Further, the TGI in the assay with A549 NSCLC stood at 19.5 µM.

For `CNC(=O)c1cc(Oc2ccc3nc(NC(=O)Nc4ccc(CN5CCOCC5)c(C(F)(F)F)c4)sc3c2)ccn1`, the GI50 was 1.68 µM in the assay on ACHN renal; 2.1 µM with EKVX NSCLC; 1.73 µM with NCI-H226 lung; 2.73 µM in the assay with DU-145 prostate; 3.31 µM with SW-620 colon; 1.97 µM in the assay on NCI-H522 lung. Further, in the assay on A549 NSCLC, the GI50 was 2.15 µM. Also, the TGI in the assay on ACHN renal is 4.21 µM; in the assay with EKVX NSCLC, 7.55 µM; with NCI-H226 lung, 4.3 µM; with DU-145 prostate, 9.4 µM; in the assay on SW-620 colon it was 10 µM; with NCI-H522 lung, 8.36 µM. In the assay with A549 NSCLC, this compound returned a TGI of 5.86 µM.

For the compound `O=C(O)C1C2C=CC(O2)C1C(=O)NCc1cccnc1` (configuration not stated), the TGI in the assay with ACHN renal, with EKVX NSCLC, with NCI-H226 lung, in the assay with DU-145 prostate, in the assay with SW-620 colon and in the assay with NCI-H522 lung was more than 100 µM throughout. The compound further yielded a total growth inhibition concentration (TGI) in the assay with A549 NSCLC of more than 100 µM.

With `COc1cc2c(Oc3ccc(NC(=O)C4(C(=O)Nc5ccc(F)cc5)CC4)cc3F)ccnc2cc1OCCCN1CCOCC1`, the GI50 in the assay with ACHN renal was 0.558 µM and 0.702 µM; with EKVX NSCLC, 1.16 µM and 1.93 µM; in the assay with NCI-H226 lung, 0.491 µM and 0.662 µM; with DU-145 prostate, 1.52 µM and 1.98 µM; in the assay with SW-620 colon, 0.346 µM and 0.311 µM; in the assay on NCI-H522 lung, 0.983 µM. In addition, the GI50 in the assay with A549 NSCLC is 0.556 µM and 0.625 µM. Also, the TGI was 2.33 µM and 3.27 µM in the assay with ACHN renal; 4.73 µM and > 10 µM in the assay on EKVX NSCLC; 2.07 µM and 3.96 µM in the assay with NCI-H226 lung; 4.39 µM and > 10 µM in the assay on DU-145 prostate; 1.85 µM and 2.6 µM in the assay on SW-620 colon; 2.87 µM in the assay on NCI-H522 lung. In addition, the total growth inhibition concentration (TGI) in the assay on A549 NSCLC is 1.88 µM and 2.2 µM.

As for `Cc1ccc2c(c1)[n+](=O)c(C(=O)c1cccs1)c(C(F)(F)F)n2[O-]`, the GI50 in the assay on ACHN renal was 1.25 µM and 0.541 µM; in the assay on EKVX NSCLC, 0.729 µM and 0.278 µM; with NCI-H226 lung, 2.21 µM; in the assay on DU-145 prostate it was 0.913 µM and 0.573 µM; in the assay with SW-620 colon, 2.02 µM and 3.58 µM; in the assay with NCI-H522 lung it was 1.37 µM and 0.23 µM. For the same compound, the GI50 in the assay with A549 NSCLC was 1.72 µM and 0.764 µM. Moreover, the total growth inhibition concentration (TGI) is 6.47 µM and 4.68 µM with ACHN renal; 1.87 µM and 0.746 µM in the assay with EKVX NSCLC; 13.2 µM with NCI-H226 lung; 2.08 µM and 2.42 µM with DU-145 prostate; 50 µM and 20.4 µM in the assay with SW-620 colon; 20.9 µM and 10.8 µM with A549 NSCLC.

The values above are taken from PubChem BioAssay (NCI).
